Activity calls are given as the source filed them.
Experiments:
[1] = molecular target: T1, Coagulation factor XII (Homo sapiens, UniProt P00748); assay type: functional;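 also: activated factor XIIa alpha cleaving a fluorogenic AMC peptide substrate; inhibitor potency from loss of enzyme activity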
T1 sequence (P00748 whole entry): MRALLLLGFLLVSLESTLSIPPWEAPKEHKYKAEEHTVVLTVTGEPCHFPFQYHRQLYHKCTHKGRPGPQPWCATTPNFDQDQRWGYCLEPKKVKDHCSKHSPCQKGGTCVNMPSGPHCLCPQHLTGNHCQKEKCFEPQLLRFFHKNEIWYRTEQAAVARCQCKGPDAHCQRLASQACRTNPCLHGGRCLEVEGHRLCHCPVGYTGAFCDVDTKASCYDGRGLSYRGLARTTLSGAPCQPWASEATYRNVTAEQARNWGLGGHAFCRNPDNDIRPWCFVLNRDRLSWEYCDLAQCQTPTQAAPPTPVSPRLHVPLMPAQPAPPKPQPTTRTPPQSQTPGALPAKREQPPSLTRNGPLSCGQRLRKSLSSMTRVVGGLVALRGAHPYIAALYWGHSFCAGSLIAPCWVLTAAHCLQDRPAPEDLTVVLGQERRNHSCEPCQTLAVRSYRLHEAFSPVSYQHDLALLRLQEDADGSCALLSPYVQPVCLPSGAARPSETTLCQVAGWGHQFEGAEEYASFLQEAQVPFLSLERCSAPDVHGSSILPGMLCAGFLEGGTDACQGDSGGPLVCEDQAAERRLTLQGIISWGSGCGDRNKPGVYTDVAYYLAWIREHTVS

[2] = molecular target: T2, Tyrosine-protein phosphatase non-receptor type 22 (Homo sapiens, UniProt Q9Y2R2); assay type: functional
T2 sequence (Q9Y2R2 whole entry): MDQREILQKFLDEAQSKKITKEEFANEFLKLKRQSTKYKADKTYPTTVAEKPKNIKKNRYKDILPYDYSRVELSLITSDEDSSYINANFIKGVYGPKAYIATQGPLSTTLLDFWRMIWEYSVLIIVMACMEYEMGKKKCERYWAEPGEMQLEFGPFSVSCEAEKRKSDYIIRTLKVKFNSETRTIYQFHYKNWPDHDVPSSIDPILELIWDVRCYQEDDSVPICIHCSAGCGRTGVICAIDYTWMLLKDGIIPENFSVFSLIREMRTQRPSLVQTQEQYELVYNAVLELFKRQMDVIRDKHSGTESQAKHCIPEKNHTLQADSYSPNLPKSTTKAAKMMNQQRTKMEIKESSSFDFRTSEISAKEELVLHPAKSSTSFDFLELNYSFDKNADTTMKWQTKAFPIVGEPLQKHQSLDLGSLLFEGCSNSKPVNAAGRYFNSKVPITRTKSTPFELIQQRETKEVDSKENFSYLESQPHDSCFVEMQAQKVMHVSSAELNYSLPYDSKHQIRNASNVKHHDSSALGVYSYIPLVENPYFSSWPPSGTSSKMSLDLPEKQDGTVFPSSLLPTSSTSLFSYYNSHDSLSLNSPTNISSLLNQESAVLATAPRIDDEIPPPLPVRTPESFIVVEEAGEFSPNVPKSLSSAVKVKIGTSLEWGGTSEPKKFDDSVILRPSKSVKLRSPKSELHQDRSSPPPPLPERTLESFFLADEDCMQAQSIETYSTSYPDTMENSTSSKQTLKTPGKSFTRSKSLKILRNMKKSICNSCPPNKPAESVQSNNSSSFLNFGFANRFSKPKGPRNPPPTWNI

[3] = molecular target: T2, Tyrosine-protein phosphatase non-receptor type 22; assay type: functional; remark: listed apart in the source
[4] = molecular target: T3, Tyrosine-protein phosphatase non-receptor type 7 (Homo sapiens, UniProt P35236); assay type: functional
T3 sequence (P35236 whole entry): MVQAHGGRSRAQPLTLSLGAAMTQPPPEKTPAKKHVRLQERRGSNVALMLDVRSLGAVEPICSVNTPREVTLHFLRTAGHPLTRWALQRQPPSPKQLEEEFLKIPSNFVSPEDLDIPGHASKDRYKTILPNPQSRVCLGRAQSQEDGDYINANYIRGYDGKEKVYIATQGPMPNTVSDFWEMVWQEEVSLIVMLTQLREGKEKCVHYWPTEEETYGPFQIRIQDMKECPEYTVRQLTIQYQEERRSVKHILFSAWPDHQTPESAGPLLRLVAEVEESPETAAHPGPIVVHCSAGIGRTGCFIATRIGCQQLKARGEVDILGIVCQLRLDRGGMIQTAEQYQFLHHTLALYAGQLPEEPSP

[5] = molecular target: X-box-binding protein 1 (Homo sapiens, UniProt P17861); assay type: functional, Cricetulus griseus;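 also: confirmatory dose-response counter-screen serving a CHOP assay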
Sequence of X-box-binding protein 1 (P17861 whole entry): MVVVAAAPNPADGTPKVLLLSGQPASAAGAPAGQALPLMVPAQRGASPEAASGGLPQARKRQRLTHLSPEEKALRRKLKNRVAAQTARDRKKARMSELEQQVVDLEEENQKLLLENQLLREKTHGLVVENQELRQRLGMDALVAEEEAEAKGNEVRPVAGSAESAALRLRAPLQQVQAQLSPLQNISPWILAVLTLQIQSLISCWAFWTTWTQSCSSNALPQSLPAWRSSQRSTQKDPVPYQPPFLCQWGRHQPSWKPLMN

[6] = molecular target: Heat shock protein HSP 90-alpha (Homo sapiens, UniProt P07900); assay type: functional, organism-based
[7] = molecular target: G-protein coupled receptor 55 (Homo sapiens, UniProt Q9Y2T6); assay: inhibition of LPI-stimulated GPR55 beta-arrestin translocation – imaging, U2OS, beta-arrestin-GFP, LPI agonist, primary screen (AID 2013); assay type: functional;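 also: antagonist potency measured as reduced agonist-driven arrestin aggregation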
Sequence of G-protein coupled receptor 55 (Q9Y2T6 whole entry): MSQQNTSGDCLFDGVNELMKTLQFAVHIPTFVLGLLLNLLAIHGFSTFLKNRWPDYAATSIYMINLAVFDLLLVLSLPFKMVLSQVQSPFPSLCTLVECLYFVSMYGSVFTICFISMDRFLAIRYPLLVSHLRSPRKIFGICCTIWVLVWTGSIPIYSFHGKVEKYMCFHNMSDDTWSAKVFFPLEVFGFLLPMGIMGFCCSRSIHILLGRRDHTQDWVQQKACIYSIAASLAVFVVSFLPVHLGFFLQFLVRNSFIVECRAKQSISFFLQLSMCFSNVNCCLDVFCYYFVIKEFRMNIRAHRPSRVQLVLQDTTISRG

[8] = protection from phage-mediated lysis, alamar blue read-out – E. coli UTI89, K1F phage, bacterial capsule biogenesis inhibitors (AID 488966); assay type: functional
[9] = molecular target: Induced myeloid leukemia cell differentiation protein Mcl-1 (Homo sapiens, UniProt Q07820); assay type: functional
Sequence of Induced myeloid leukemia cell differentiation protein Mcl-1 (Q07820 whole entry): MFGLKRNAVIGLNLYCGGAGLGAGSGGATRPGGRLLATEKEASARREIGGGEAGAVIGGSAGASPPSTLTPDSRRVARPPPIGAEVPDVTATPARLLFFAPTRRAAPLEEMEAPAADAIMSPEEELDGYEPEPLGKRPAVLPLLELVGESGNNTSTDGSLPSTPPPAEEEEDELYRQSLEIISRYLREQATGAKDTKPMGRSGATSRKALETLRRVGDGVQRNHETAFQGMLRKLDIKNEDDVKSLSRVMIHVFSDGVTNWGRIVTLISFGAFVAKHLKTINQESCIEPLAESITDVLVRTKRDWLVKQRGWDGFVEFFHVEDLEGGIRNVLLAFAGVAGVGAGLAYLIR

Question: Which IC50 [1] does the source give for `CNC(=O)COC(=O)c1cc(-c2ccco2)nc2ccccc12` here?
Answer: > 50 µM (inactive)

Question: With `CCOC(=O)CNC(=O)Cn1cnc2c(nnn2-c2cccc(Cl)c2)c1=O` as the compound, how does the IC50 [1] read?
Answer: > 50 µM (inactive)

Question: Which results are given for `COc1ccc2c(-c3ccccc3)cc(N3CCOCC3)nc2c1`?
Answer: IC50 [2]: > 79.4 µM (inactive); IC50 [3]: > 79.4 µM (inactive); IC50 [4]: > 79.4 µM (inactive)

Question: For `Cc1ccc(NC(=O)C(=O)NCC2OCCc3ccccc32)cc1` (stereo unspecified), which “Absolute IC50 (XBP1)” value [5] is on record?
Answer: 10 µM

Question: What does the source list for `CC(C)(C)C(=O)C(Cl)C(=O)Nc1ccccc1` (stereo unspecified)?
Answer: AC50 [6]: 1.05 µM (active); IC50 [7]: 0.696 µM (active)

Question: Which IC50 [8] does the source give for `Cc1ccc(C(=O)Oc2ccc(/C=C3\C(=N)N4N=C(N5CCOCC5)SC4=NC3=O)cc2)cc1` here?
Answer: > 75 µM (active)

Question: For `CCc1ccc2nc3sc(C(=O)Nc4nnc(CC)s4)c(N)c3cc2c1`, which IC50 [8] is on record?
Answer: > 150 µM (active)

Question: And the IC50 [9]?
Answer: 4.39 µM (not active)
